Assay results reported in ChEMBL document CHEMBL1201862, “PubChem BioAssay data set” (2004).
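Compound exposure: 48 hours, 5 concentrations, 96-well plates. GI50 is the concentration that inhibits growth by half.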 Active and inactive are the calls of the source. Rule as the data show it: active = GI50 up to about 1.1 µM and inactive = higher.

Key:
Test in all cases: NCI-60 cell line screen, 48 h
NCI/ADR-RES = tested on: NCI/ADR-RES
RPMI-8226 = tested on: RPMI-8226
SK-MEL-5 = tested on: SK-MEL-5
Malme-3M = tested on: Malme-3M
SW-620 = tested on: SW-620
SNB-19 = tested on: SNB-19
UACC-62 = tested on: UACC-62
K562 = tested on: K562
LOX IMVI = tested on: LOX IMVI
OVCAR-4 = tested on: OVCAR-4
NCI-H226 = tested on: NCI-H226
UACC-257 = tested on: UACC-257
HT-29 = tested on: HT-29
OVCAR-8 = tested on: OVCAR-8
HOP-92 = tested on: HOP-92
SN12C = tested on: SN12C
NCI-H460 = tested on: NCI-H460
COLO 205 = tested on: COLO 205
SF-268 = tested on: SF-268
HOP-62 = tested on: HOP-62

| SMILES | GI50 (NCI/ADR-RES) | GI50 (RPMI-8226) | GI50 (SK-MEL-5) | GI50 (Malme-3M) | GI50 (SW-620) | GI50 (SNB-19) | GI50 (UACC-62) | GI50 (K562) | GI50 (LOX IMVI) | GI50 (OVCAR-4) | GI50 (NCI-H226) | GI50 (UACC-257) | GI50 (HT-29) | GI50 (OVCAR-8) | GI50 (HOP-92) | GI50 (SN12C) | GI50 (NCI-H460) | GI50 (COLO 205) | GI50 (SF-268) | GI50 (HOP-62) |
| --- | --- | --- | --- | --- | --- | --- | --- | --- | --- | --- | --- | --- | --- | --- | --- | --- | --- | --- | --- | --- |
| CC1(C)N=C(N)N=C(N)N1c1ccc(OCCCOc2ccccc2)c(Cl)c1 | > 100 µM (inactive) | 0.547 µM (active) | 0.265 µM (active) | 0.49 µM (active) | 0.0356 µM (active) | 0.0379 µM (active) | 0.472 µM (active) | 2.48 µM (inactive) | 0.0457 µM (active) | 0.156 µM (active) | 0.798 µM (active) | 0.766 µM (active) | 0.0161 µM (active) | 0.514 µM (active) | 0.409 µM (active) | 0.202 µM (active) | 0.0457 µM (active) | 0.112 µM (active) | 0.0585 µM (active) | – |
| CC(=O)C(C(=O)C(=O)Nc1cc(Cl)c(Cl)cc1Cl)c1csc(N)n1 (stereo unspecified) | – | > 100 µM (inactive) | > 100 µM (inactive) | – | > 100 µM (inactive) | > 100 µM (inactive) | > 100 µM (inactive) | > 100 µM (inactive) | > 100 µM (inactive) | > 100 µM (inactive) | > 100 µM (inactive) | > 100 µM (inactive) | > 100 µM (inactive) | > 100 µM (inactive) | > 100 µM (inactive) | > 100 µM (inactive) | > 100 µM (inactive) | > 100 µM (inactive) | > 100 µM (inactive) | > 100 µM (inactive) |
| COc1cc(C2C(C(=O)O)=C(CO)Oc3cc4c(cc32)OCO4)cc(OC)c1OC (stereo unspecified) | – | > 100 µM (inactive) | > 100 µM (inactive) | – | > 100 µM (inactive) | > 100 µM (inactive) | > 100 µM (inactive) | > 100 µM (inactive) | > 100 µM (inactive) | > 100 µM (inactive) | – | > 100 µM (inactive) | > 100 µM (inactive) | > 100 µM (inactive) | 35.6 µM (inactive) | > 100 µM (inactive) | > 100 µM (inactive) | > 100 µM (inactive) | – | – |
| C=CCn1c(=O)c(C)cn(COCCO)c1=O | > 100 µM (inactive) | > 100 µM (inactive) | > 100 µM (inactive) | > 100 µM (inactive) | > 100 µM (inactive) | > 100 µM (inactive) | – | > 100 µM (inactive) | > 100 µM (inactive) | – | > 100 µM (inactive) | > 100 µM (inactive) | > 100 µM (inactive) | > 100 µM (inactive) | > 100 µM (inactive) | > 100 µM (inactive) | > 100 µM (inactive) | > 100 µM (inactive) | > 100 µM (inactive) | > 100 µM (inactive) |
| C[C@]12CC[C@H](O)C=C1CC[C@@H]1[C@@H]2CC[C@]2(C)C(c3ccc(=O)oc3)CC[C@]12O (stereo partly specified) | 0.0328 µM (active) | 0.0125 µM (active) | 0.0125 µM (active) | 0.0135 µM (active) | 0.0149 µM (active) | 0.0327 µM (active) | 0.0154 µM (active) | 0.0125 µM (active) | 0.0125 µM (active) | 0.0146 µM (active) | 0.0375 µM (active) | 0.0181 µM (active) | 0.035 µM (active) | 0.015 µM (active) | 0.014 µM (active) | 0.0125 µM (active) | 0.0132 µM (active) | 0.033 µM (active) | 0.0125 µM (active) | 0.0125 µM (active) |
| CN(C)c1ccc(N2C(=S)SC(=N\c3ccccc3)/C2=N/c2ccccc2)cc1 | > 100 µM (inactive) | > 100 µM (inactive) | > 100 µM (inactive) | > 100 µM (inactive) | – | > 100 µM (inactive) | > 100 µM (inactive) | > 100 µM (inactive) | – | > 100 µM (inactive) | > 100 µM (inactive) | – | – | > 100 µM (inactive) | – | > 100 µM (inactive) | > 100 µM (inactive) | > 100 µM (inactive) | – | > 100 µM (inactive) |
| NC(=S)N/N=C1\c2ccccc2CCC1CCC1(O)CCc2ccccc2C1=O (stereo unspecified) | 13.8 µM (inactive) | 24.9 µM (inactive) | 15 µM (inactive) | 19.8 µM (inactive) | 28 µM (inactive) | 34.8 µM (inactive) | 17.8 µM (inactive) | > 10 µM (inactive) | 19.3 µM (inactive) | 34 µM (inactive) | – | 18 µM (inactive) | 19.8 µM (inactive) | 16.6 µM (inactive) | – | 18.1 µM (inactive) | 16 µM (inactive) | 17.7 µM (inactive) | 42.1 µM (inactive) | 57.4 µM (inactive) |
| C[S+](C)([O-])=Nn1c(=O)n2n(c1=O)[C@H]1CC[C@@H]2C1 | > 100 µM (inactive) | > 100 µM (inactive) | > 100 µM (inactive) | > 100 µM (inactive) | > 100 µM (inactive) | > 100 µM (inactive) | > 100 µM (inactive) | > 100 µM (inactive) | > 100 µM (inactive) | – | > 100 µM (inactive) | > 100 µM (inactive) | > 100 µM (inactive) | > 100 µM (inactive) | > 100 µM (inactive) | – | > 100 µM (inactive) | > 100 µM (inactive) | > 100 µM (inactive) | > 100 µM (inactive) |
| COC(=O)C1=C(OC(=O)/C=C/c2ccc(Cl)cc2)C(C(=O)OC)[C@@]2(O)[C@@H](C(=O)OC)[C@H](C)C[C@@H]1[C@@H]2C(=O)OC (stereo partly specified) | 21.6 µM (inactive) | – | 17.2 µM (inactive) | 11.3 µM (inactive) | 28.4 µM (inactive) | 30.8 µM (inactive) | 17.6 µM (inactive) | 21.6 µM (inactive) | 13.1 µM (inactive) | 27.1 µM (inactive) | 20.7 µM (inactive) | 45.1 µM (inactive) | 26.1 µM (inactive) | 14.6 µM (inactive) | – | 19 µM (inactive) | 27.2 µM (inactive) | 17.1 µM (inactive) | 16.7 µM (inactive) | 28.8 µM (inactive) |
| C=C1C(=O)OC2C1CC1OC2C(C)CCC/C(C)=C\CCC1(C)O (stereo unspecified) | 14.4 µM (inactive) | 7.6 µM (inactive) | 5.14 µM (inactive) | 32.7 µM (inactive) | 10.9 µM (inactive) | 49.1 µM (inactive) | 9.04 µM (inactive) | 12.7 µM (inactive) | 6.55 µM (inactive) | 18.2 µM (inactive) | 18.4 µM (inactive) | 22.6 µM (inactive) | 30.3 µM (inactive) | 9.46 µM (inactive) | 10.7 µM (inactive) | 19.5 µM (inactive) | 20.1 µM (inactive) | 15.8 µM (inactive) | 13 µM (inactive) | 32.2 µM (inactive) |
| CC(C)c1ccccc1SCc1cc(=O)cc(CSc2ccccc2C(C)C)o1 | 17.7 µM (inactive) | 32.4 µM (inactive) | 24.1 µM (inactive) | 25.2 µM (inactive) | 34.2 µM (inactive) | 32.7 µM (inactive) | 16.7 µM (inactive) | 48.1 µM (inactive) | 26.8 µM (inactive) | 19.5 µM (inactive) | 21.2 µM (inactive) | 20.5 µM (inactive) | 19.8 µM (inactive) | 22.7 µM (inactive) | 15.2 µM (inactive) | – | 21.1 µM (inactive) | 37.2 µM (inactive) | 16.8 µM (inactive) | 20.7 µM (inactive) |
| CCOC(=O)Oc1ccc(C(CNC(C)C)OC(=O)OCC)cc1OC(=O)OCC (stereo unspecified) | > 100 µM (inactive) | > 100 µM (inactive) | > 100 µM (inactive) | > 100 µM (inactive) | > 100 µM (inactive) | > 100 µM (inactive) | > 100 µM (inactive) | > 100 µM (inactive) | > 100 µM (inactive) | 65.5 µM (inactive) | > 100 µM (inactive) | > 100 µM (inactive) | > 100 µM (inactive) | > 100 µM (inactive) | > 100 µM (inactive) | > 100 µM (inactive) | > 100 µM (inactive) | > 100 µM (inactive) | > 100 µM (inactive) | > 100 µM (inactive) |
| CCN(CC)CCCNc1ncc(C)c2[nH]c3ccncc3c12 | > 100 µM (inactive) | 50.5 µM (inactive) | 13.6 µM (inactive) | 10.3 µM (inactive) | 4.71 µM (inactive) | 15.1 µM (inactive) | 8.99 µM (inactive) | 14.8 µM (inactive) | 3.64 µM (inactive) | 4.5 µM (inactive) | 5.69 µM (inactive) | 12.5 µM (inactive) | 4.22 µM (inactive) | 7.29 µM (inactive) | 6.1 µM (inactive) | 4.88 µM (inactive) | 3.33 µM (inactive) | 4.13 µM (inactive) | 6.75 µM (inactive) | 18.6 µM (inactive) |
| COc1ccc(C(=O)/C(Br)=C/C(=O)O)cc1 | 21.3 µM (inactive) | 11.5 µM (inactive) | 20.7 µM (inactive) | 14.8 µM (inactive) | – | 77.6 µM (inactive) | 7.91 µM (inactive) | 29.5 µM (inactive) | 20.5 µM (inactive) | 32.7 µM (inactive) | 27.3 µM (inactive) | 26.9 µM (inactive) | 76.7 µM (inactive) | 21 µM (inactive) | 28.4 µM (inactive) | 37.8 µM (inactive) | 23.2 µM (inactive) | 18.7 µM (inactive) | 31.6 µM (inactive) | 17.4 µM (inactive) |
| COc1cc(C2c3cc4c(cc3[C@@H](Nc3cnc5ccccc5c3)C3COC(=O)[C@H]23)OCO4)cc(OC)c1O (stereo partly specified) | 1.51 µM (inactive) | 0.159 µM (active) | 0.193 µM (active) | 0.621 µM (active) | 0.296 µM (active) | 0.221 µM (active) | 0.301 µM (active) | 0.649 µM (active) | 0.37 µM (active) | 1.05 µM (active) | 0.152 µM (active) | 0.839 µM (active) | 0.634 µM (active) | 0.346 µM (active) | 0.381 µM (active) | 0.338 µM (active) | < 0.01 µM (active) | 1.28 µM (inactive) | 0.327 µM (active) | 0.128 µM (active) |
